Measurements published in US8822449B2, “Substituted aminoindanes and analogs thereof, and the pharmaceutical use thereof” (Sanofi, priority 2008, dated 2014).

What follows are compounds tested against T1, sodium-proton exchanger of subtype 3 (NHE3) (Homo sapiens, UniProt P48764) (assay: Recovery of intracellular pH (pHi) after acidification in LAP1 cells stably expressing NHE3 (BCECF fluorescence, FLIPR)). Details: LAP1 cells stably expressing NHE3; pH recovery after acidification; range 1 is % inhibition at 10 μM; read-out: Activity range (inhibitory effect on NHE3).
T1 construct: expressed in transfected cells
T1 sequence (P48764 26-834): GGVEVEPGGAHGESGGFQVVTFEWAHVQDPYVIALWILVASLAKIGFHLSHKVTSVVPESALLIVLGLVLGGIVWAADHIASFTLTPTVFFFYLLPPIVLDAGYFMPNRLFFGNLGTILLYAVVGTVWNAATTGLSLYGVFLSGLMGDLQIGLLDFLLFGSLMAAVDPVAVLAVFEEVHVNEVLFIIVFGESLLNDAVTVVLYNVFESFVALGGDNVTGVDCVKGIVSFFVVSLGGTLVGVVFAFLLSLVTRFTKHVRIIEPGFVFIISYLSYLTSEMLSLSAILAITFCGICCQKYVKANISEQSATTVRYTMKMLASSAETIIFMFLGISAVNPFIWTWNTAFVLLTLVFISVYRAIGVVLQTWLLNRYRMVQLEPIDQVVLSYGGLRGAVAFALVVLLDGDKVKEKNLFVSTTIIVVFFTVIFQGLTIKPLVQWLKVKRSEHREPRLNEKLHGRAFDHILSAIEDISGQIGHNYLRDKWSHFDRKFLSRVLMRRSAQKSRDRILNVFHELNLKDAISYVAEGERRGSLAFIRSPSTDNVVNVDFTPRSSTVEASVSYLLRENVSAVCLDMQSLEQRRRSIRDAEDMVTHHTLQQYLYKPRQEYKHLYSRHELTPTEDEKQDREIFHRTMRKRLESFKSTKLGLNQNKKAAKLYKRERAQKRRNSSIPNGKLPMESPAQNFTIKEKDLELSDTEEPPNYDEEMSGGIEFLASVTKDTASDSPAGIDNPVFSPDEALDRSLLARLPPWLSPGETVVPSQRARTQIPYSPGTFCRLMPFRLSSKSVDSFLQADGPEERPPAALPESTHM
Type: cell-based

IC50	inhibition at 10 µM	Compound
< 1000 nM		O=C1CNC(=O)N1c1ccc(O[C@H]2c3cc(Cl)cc(Cl)c3C[C@@H]2N2CC[C@@H](O)C2)cc1 [Example 426, 3-{4-[(1S,2S)-4,6-dichloro-2-((R)-3-hydroxypyrrolidin-1-yl)indan-1-yloxy]phenyl}imidazolidine-2,4-dione]
< 1000 nM		Cc1nnc(C)n1-c1ccc(O[C@H]2c3cc(Cl)cc(Cl)c3C[C@@H]2N2CCCN(C)CC2)c(Cl)c1 [Example 345, 1-{trans-(1S,2S)-4,6-dichloro-1-[2-chloro-4-(3,5-dimethyl-[1,2,4]triazol-4-yl)phenoxy]indan-2-yl}-4-methyl-[1,4]diazepane]
1000 to 10000 nM		COc1cc(Cl)cc(O[C@@H]2c3ccccc3C[C@H]2N2CCC[C@H](N)C2)c1 (racemic) [Example 164, (S)-1-[rac-trans-(1,2)-1-(3-chloro-5-methoxyphenoxy)indan-2-yl]piperidin-3-ylamine]
1000 to 10000 nM		N[C@@H]1CCCN([C@H]2CCc3ccccc3[C@@H]2Oc2ccc(-n3ccnc3)cc2)C1 (racemic) [Example 71, (R)-1-[rac-trans-(1,2)-1-(4-imidazol-1-ylphenoxy)-1,2,3,4-tetrahydronaphthalen-2-yl]piperidin-3-ylamine]
< 1000 nM		CN1CCC2CN([C@H]3Cc4c(Cl)cc(Cl)cc4[C@@H]3Oc3ccc(S(C)(=O)=O)cc3)CC21 (single isomer, unassigned) [Example 581]
1000 to 10000 nM		Cn1ccn(-c2ccc(O[C@H]3c4cc(Cl)cc(F)c4C[C@@H]3NC3CCCC3)c(F)c2)c1=O [Example 755, 1-[4-(trans-(1S,2S)-6-Chloro-2-cyclopentylamino-4-fluoro-indan-1-yloxy)-3-fluoro-phenyl]-3-methyl-1,3-dihydro-imidazol-2-one]
	20 to 50%	Cc1cc(C)c2cccnc2c1O[C@H]1c2ccccc2CC[C@@H]1N1CCC[C@H](N)C1 (racemic) [Example 187, (S)-1-[rac-trans-(1,2)-1-(5,7-dimethylquinolin-8-yloxy)-1,2,3,4-tetrahydronaphthalen-2-yl]piperidin-3-ylamine]
< 1000 nM		CS(=O)(=O)c1ccc(O[C@H]2c3cc(Cl)cc(Cl)c3C[C@@H]2N2CCCN(CCO)CC2)cc1 [Example 385, 2-{4-[trans-(1S,2S)-4,6-dichloro-1-(4-methanesulfonylphenoxy)indan-2-yl]-[1,4]diazepan-1-yl}-ethanol]
1000 to 10000 nM		NC(=O)c1ccccc1O[C@H]1c2ccccc2CC[C@@H]1N1CCC[C@@H](N)C1 (racemic) [Example 368, 2-[rac-trans-(1,2)-2-((R)-3-aminopiperidin-1-yl)-1,2,3,4-tetrahydronaphthalen-1-yloxy]benzamide]

More lines, now with the values behind:

Compound	IC50	inhibition at 10 µM
Cc1nnc(C)n1-c1ccc(O[C@H]2c3cc(Cl)cc(Cl)c3C[C@@H]2N2CCOCC2)c(F)c1 [Example 564, 4-{trans-(1S,2S)-4,6-dichloro-1-[4-(3,5-dimethyl-[1,2,4]triazol-4-yl)-2-fluorophenoxy]indan-2-yl}morpholine]	< 1000 nM	
CS(=O)(=O)c1ccc(O[C@H]2c3cc(Cl)cc(Cl)c3C[C@@H]2N2CC[C@@H](N3CCCC3)C2)cc1 [Example 99, (R)-1′-[trans-(1S,2S)-4,6-dichloro-1-(4-methanesulfonylphenoxy)indan-2-yl]-[1,3′]bipyrrolidinyl]	< 1000 nM	
Cc1nc2cc(O[C@@H]3c4ccccc4C[C@H]3N3C[C@H]4CNC[C@H]4C3)ccc2s1 (racemic) [Example 576, 5-[rac-trans-(1,2)-2-(hexahydropyrrolo[3,4-c]pyrrol-2-yl)indan-1-yloxy]-2-methylbenzothiazole]	1000 to 10000 nM	
N#Cc1ccc(O[C@@H]2c3ccccc3C[C@H]2N2CCC(CN)C2)c(Cl)c1 (mixture of isomers) [Example 541, 4-[rac-trans-(1,2)-2-(3-aminomethylpyrrolidin-1-yl)indan-1-yloxy]-3-chlorobenzonitrile]	1000 to 10000 nM	
c1ccc2c(c1)CC[C@H](N1CCOCC1)[C@H]2Oc1ccc2ccncc2c1 (racemic) [Example 588, 7-(rac-trans-(1,2)-2-morpholin-4-yl-1,2,3,4-tetrahydronaphthalen-1-yloxy)isoquinoline]		20 to 50%
Cc1cc(O[C@H]2c3cc(F)cc(Cl)c3C[C@@H]2N2CCNCC2)ccc1S(C)(=O)=O (racemic) [Example 281, 1-[rac-trans-(1,2)-4-chloro-6-fluoro-1-(4-methanesulfonyl-3-methylphenoxy)indan-2-yl]piperazine]	< 1000 nM	
CS(=O)(=O)c1ccc(O[C@H]2c3cc(Cl)cc(F)c3C[C@@H]2N2CCNCC2)cc1 (racemic) [Example 292, 1-[rac-trans-(1,2)-6-chloro-4-fluoro-1-(4-methanesulfonylphenoxy)indan-2-yl]piperazine]	< 1000 nM	
Cc1nnc(C)n1-c1ccc(O[C@H]2c3ccccc3C[C@@H]2N2CCCC2)c(Cl)c1 [Example 491, 4-[3-chloro-4-(trans-(1S,2S)-2-pyrrolidin-1-ylindan-1-yloxy)phenyl]-3,5-dimethyl-4H-[1,2,4]triazole]	< 1000 nM	
NC(=O)Cc1c[nH]c2ccc(O[C@@H]3c4ccccc4C[C@H]3N3CCC(N)C3)cc12 (mixture of isomers) [Example 387, 2-{5-[rac-trans-(1,2)-2-(3-aminopyrrolidin-1-yl)indan-1-yloxy]-1H-indol-3-yl}acetamide]	1000 to 10000 nM	
Cc1cc(O[C@@H]2c3ccccc3C[C@H]2N2CCC(CN)C2)cc(C)c1C#N (mixture of isomers) [Example 539, 4-[rac-trans-(1,2)-2-(3-aminomethylpyrrolidin-1-yl)indan-1-yloxy]-2,6-dimethylbenzonitrile]	1000 to 10000 nM	
N[C@H]1CCCN([C@@H]2Cc3ccccc3[C@H]2Oc2ccc(N3CCNCC3)cc2)C1 (racemic) [Example 185, (S)-1-[rac-trans-(1,2)-1-(4-piperazin-1-ylphenoxy)indan-2-yl]piperidin-3-ylamine]	1000 to 10000 nM	
O[C@@H]1CCN([C@H]2Cc3c(Cl)cc(Cl)cc3[C@@H]2Oc2ccc(F)cc2-c2ccn[nH]2)C1 [Example 137, (R)-1-{trans-(1S,2S)-4,6-dichloro-1-[4-fluoro-2-(2H-pyrazol-3-yl)phenoxy]indan-2-yl}pyrrolidin-3-ol]		20 to 50%
CS(=O)(=O)c1ccc(O[C@H]2c3cc(Cl)cc(F)c3C[C@@H]2N2CC[C@@H](O)C2)c(Cl)c1 [Example 106, (R)-1-[trans-(1S,2S)-6-chloro-1-(2-chloro-4-methanesulfonylphenoxy)-4-fluoroindan-2-yl]pyrrolidin-3-ol]	< 1000 nM	
O=C1CCCN1c1ccc(O[C@H]2c3cc(Cl)cc(Cl)c3C[C@@H]2N2CC[C@@H](O)C2)cc1 [Example 333, 1-{4-[trans-(1S,2S)-4,6-dichloro-2-((R)-3-hydroxypyrrolidin-1-yl)indan-1-yloxy]phenyl}pyrrolidin-2-one]	< 1000 nM	
CCCC1(N)CCCN([C@H]2Cc3c(Cl)cc(Cl)cc3[C@@H]2Oc2ccc(S(C)(=O)=O)cc2)C1 (stereo partly drawn) [Example 299, 1-[trans-(1S,2S)-4,6-dichloro-1-(4-methanesulfonylphenoxy)indan-2-yl]-3-propylpiperidin-3-ylamine]	< 1000 nM	
N[C@H]1CCCN([C@H]2CCc3ccccc3[C@@H]2Oc2ccccc2Br)C1 (racemic) [Example 151, (S)-1-[rac-trans-(1,2)-1-(2-bromophenoxy)-1,2,3,4-tetrahydronaphthalen-2-yl]piperidin-3-ylamine]		20 to 50%
CO[C@@H]1CCN(C2Cc3ccccc3C2Oc2ccc(S(N)(=O)=O)c(Cl)c2Cl)C1 (mixture of isomers) [Example 359, 2,3-dichloro-4-[rac-trans-(1,2)-2-((R)-3-methoxypyrrolidin-1-yl)indan-1-yloxy]benzenesulfonamide]	1000 to 10000 nM	
CS(=O)(=O)c1ccc(O[C@H]2c3cc(Cl)cc(Cl)c3C[C@@H]2N2C[C@H]3CNC[C@H]3C2)cc1 [Example 3, 2-[trans-(1S,2S)-4,6-dichloro-1-(4-methanesulfonylphenoxy)indan-2-yl]octahydropyrrolo[3,4-c]pyrrole]	< 1000 nM	
Cn1ccn(-c2ccc(Cl)c(O[C@H]3c4cc(Cl)cc(F)c4C[C@@H]3N3CC[C@@H](O)C3)c2)c1=O [Example 339, 1-{4-chloro-3-[(1S,2S)-6-chloro-4-fluoro-2-((R)-3-hydroxypyrrolidin-1-yl)indan-1-yloxy]phenyl}-3-methyl-1,3-dihydroimidazol-2-one]	< 1000 nM	
N[C@@H]1CCCN([C@@H]2Cc3ccccc3[C@H]2Oc2ccc(N3CCNCC3)cc2)C1 (racemic) [Example 76, (R)-1-[rac-trans-(1,2)-1-(4-piperazin-1-ylphenoxy)indan-2-yl]piperidin-3-ylamine]	1000 to 10000 nM	
O=C1CCC(=O)N1c1ccc(O[C@H]2c3cc(Cl)cc(Cl)c3C[C@@H]2N2CC[C@@H](O)C2)cc1 [Example 334, 1-{4-[trans-(1S,2S)-4,6-dichloro-2-((R)-3-hydroxypyrrolidin-1-yl)indan-1-yloxy]phenyl}pyrrolidine-2,5-dione]	< 1000 nM	
